ChEMBL document CHEMBL3885861, “Open TG-GATES”

Organism: Rattus norvegicus
Experiment: Open TG-GATES - Regimen: Single
Type: toxicity, organism-based, Sprague-Dawley
Design: regimen Single, gender Male, age 6 weeks
Settings: in vivo, po, route gavage; for Bas / Eos / Ht / Lym / MCH / Mono / Neu / RBC / Ret: tissue Blood; for KIDNEY_L / KIDNEY_R / KIDNEY_TOTAL: tissue Kidney; for ALP / ALT / AST / CRE / DBIL / IP / K / LDH / Na / PL / RALB / TBIL / TC / TG / TP / gamma-GTP / Ca: tissue Plasma; for LIVER: tissue Liver
[1] = 0 mg/kg, 3 h, dose level Control
[2] = 0 mg/kg, 6 h, dose level Control
[3] = 0 mg/kg, 9 h, dose level Control
[4] = 0 mg/kg, 24 h, dose level Control
[5] = 200 mg/kg, 24 h, dose level Low

COc1cc2ncnc(Nc3ccc(F)c(Cl)c3)c2cc1OCCCN1CCOCC1 [GEFITINIB]
TERMINAL_BW [1]: 216 g
Bas [1]: 0%
Eos [1]: 0.8%
Ht [1]: 39.6%
Lym [1]: 74.2%
MCH [1]: 21.5 pg
Mono [1]: 2.6%
Neu [1]: 21.8%
RBC [1]: 610.2 x10_4/ul
Ret [1]: 9.3%
KIDNEY_L [1]: 0.9 g
KIDNEY_R [1]: 0.9 g
KIDNEY_TOTAL [1]: 1.8 g
ALP [1]: 1581.8 IU/L
ALT [1]: 42.2 IU/L
AST [1]: 73.2 IU/L
CRE [1]: 0.2 mg/dL
DBIL [1]: 0 mg/dL
IP [1]: 8.2 mg/dL
K [1]: 4.1 meq/L
LDH [1]: 183.2 IU/L
Na [1]: 143.1 meq/L
PL [1]: 148.6 mg/dL
RALB [1]: 3.9 g/dL
TBIL [1]: 0.02 mg/dL
TC [1]: 85.4 mg/dL
TG [1]: 64.2 mg/dL
TP [1]: 5.5 g/dL
gamma-GTP [1]: 1.1 IU/L
TERMINAL_BW [2]: 212.6 g
Bas [2]: 0%
Eos [2]: 0.8%
Ht [2]: 40.1%
Lym [2]: 83.6%
MCH [2]: 21.4 pg
Mono [2]: 2.4%
Neu [2]: 12.8%
RBC [2]: 623.6 x10_4/ul
Ret [2]: 9.7%
KIDNEY_L [2]: 0.9 g
KIDNEY_R [2]: 1 g
KIDNEY_TOTAL [2]: 1.9 g
LIVER [2]: 9.6 g
ALP [2]: 1643.4 IU/L
ALT [2]: 41.2 IU/L
AST [2]: 71 IU/L
CRE [2]: 0.1 mg/dL
Ca [2]: 10.6 mg/dL
DBIL [2]: 0.002 mg/dL
IP [2]: 9.6 mg/dL
K [2]: 4.2 meq/L
LDH [2]: 200.6 IU/L
Na [2]: 142.5 meq/L
PL [2]: 158.8 mg/dL
RALB [2]: 3.9 g/dL
TBIL [2]: 0.018 mg/dL
TC [2]: 90.8 mg/dL
TG [2]: 78.2 mg/dL
TP [2]: 5.4 g/dL
gamma-GTP [2]: 1 IU/L
TERMINAL_BW [3]: 210 g
Bas [3]: 0%
Eos [3]: 1%
Ht [3]: 38.5%
Lym [3]: 77.6%
MCH [3]: 21.3 pg
Mono [3]: 3.4%
Neu [3]: 17.6%
RBC [3]: 601.2 x10_4/ul
Ret [3]: 9.4%
KIDNEY_L [3]: 1 g
KIDNEY_R [3]: 0.9 g
KIDNEY_TOTAL [3]: 1.9 g
LIVER [3]: 9 g
ALP [3]: 1562.4 IU/L
ALT [3]: 35.2 IU/L
AST [3]: 67.2 IU/L
CRE [3]: 0.1 mg/dL
DBIL [3]: 0.004 mg/dL
IP [3]: 10 mg/dL
K [3]: 4.2 meq/L
LDH [3]: 169 IU/L
Na [3]: 143.4 meq/L
PL [3]: 139.6 mg/dL
RALB [3]: 3.9 g/dL
TBIL [3]: 0.022 mg/dL
TC [3]: 81.6 mg/dL
TG [3]: 67.3 mg/dL
TP [3]: 5.4 g/dL
gamma-GTP [3]: 1 IU/L
TERMINAL_BW [4]: 223.4 g
Bas [4]: 0%
Eos [4]: 1%
Ht [4]: 39.9%
Lym [4]: 78.5%
MCH [4]: 20.8 pg
Mono [4]: 3.5%
Neu [4]: 16%
RBC [4]: 619.8 x10_4/ul
Ret [4]: 8.2%
KIDNEY_L [4]: 1 g
KIDNEY_R [4]: 1 g
KIDNEY_TOTAL [4]: 1.9 g
LIVER [4]: 10.6 g
ALT [4]: 44.5 IU/L
AST [4]: 75.8 IU/L
CRE [4]: 0.2 mg/dL
Ca [4]: 10.8 mg/dL
DBIL [4]: 0 mg/dL
IP [4]: 7.4 mg/dL
K [4]: 4.4 meq/L
LDH [4]: 145.5 IU/L
Na [4]: 142.1 meq/L
PL [4]: 149.5 mg/dL
RALB [4]: 4.2 g/dL
TBIL [4]: 0.01 mg/dL
TC [4]: 79 mg/dL
TG [4]: 122.7 mg/dL
TP [4]: 5.7 g/dL
gamma-GTP [4]: 1.3 IU/L
TERMINAL_BW (200 mg/kg, 3 h, dose level Low): 214.5 g
Bas (200 mg/kg, 3 h, dose level Low): 0%
Eos (200 mg/kg, 3 h, dose level Low): 0.8%
Ht (200 mg/kg, 3 h, dose level Low): 36.1%
Lym (200 mg/kg, 3 h, dose level Low): 74.4%
MCH (200 mg/kg, 3 h, dose level Low): 20.9 pg
Mono (200 mg/kg, 3 h, dose level Low): 3%
Neu (200 mg/kg, 3 h, dose level Low): 21.4%
RBC (200 mg/kg, 3 h, dose level Low): 577.2 x10_4/ul
Ret (200 mg/kg, 3 h, dose level Low): 8.9%
KIDNEY_L (200 mg/kg, 3 h, dose level Low): 1 g
KIDNEY_R (200 mg/kg, 3 h, dose level Low): 1 g
KIDNEY_TOTAL (200 mg/kg, 3 h, dose level Low): 2 g
LIVER (200 mg/kg, 3 h, dose level Low): 9.2 g
ALP (200 mg/kg, 3 h, dose level Low): 1618.4 IU/L
ALT (200 mg/kg, 3 h, dose level Low): 52 IU/L
AST (200 mg/kg, 3 h, dose level Low): 82.8 IU/L
CRE (200 mg/kg, 3 h, dose level Low): 0.1 mg/dL
Ca (200 mg/kg, 3 h, dose level Low): 9.9 mg/dL
DBIL (200 mg/kg, 3 h, dose level Low): 0.016 mg/dL
IP (200 mg/kg, 3 h, dose level Low): 9.2 mg/dL
K (200 mg/kg, 3 h, dose level Low): 4.1 meq/L
LDH (200 mg/kg, 3 h, dose level Low): 220.4 IU/L
Na (200 mg/kg, 3 h, dose level Low): 141.6 meq/L
PL (200 mg/kg, 3 h, dose level Low): 147.4 mg/dL
RALB (200 mg/kg, 3 h, dose level Low): 3.8 g/dL
TBIL (200 mg/kg, 3 h, dose level Low): 0.066 mg/dL
TC (200 mg/kg, 3 h, dose level Low): 97 mg/dL
TG (200 mg/kg, 3 h, dose level Low): 39.9 mg/dL
TP (200 mg/kg, 3 h, dose level Low): 5.3 g/dL
gamma-GTP (200 mg/kg, 3 h, dose level Low): 0.9 IU/L
TERMINAL_BW (200 mg/kg, 6 h, dose level Low): 210.7 g
Bas (200 mg/kg, 6 h, dose level Low): 0%
Eos (200 mg/kg, 6 h, dose level Low): 0.6%
Ht (200 mg/kg, 6 h, dose level Low): 37.3%
Lym (200 mg/kg, 6 h, dose level Low): 79.4%
MCH (200 mg/kg, 6 h, dose level Low): 21.5 pg
Mono (200 mg/kg, 6 h, dose level Low): 3.6%
Neu (200 mg/kg, 6 h, dose level Low): 15.8%
RBC (200 mg/kg, 6 h, dose level Low): 579.2 x10_4/ul
Ret (200 mg/kg, 6 h, dose level Low): 9.1%
KIDNEY_L (200 mg/kg, 6 h, dose level Low): 0.9 g
KIDNEY_R (200 mg/kg, 6 h, dose level Low): 0.9 g
KIDNEY_TOTAL (200 mg/kg, 6 h, dose level Low): 1.9 g
LIVER (200 mg/kg, 6 h, dose level Low): 8.9 g
ALP (200 mg/kg, 6 h, dose level Low): 1407.4 IU/L
ALT (200 mg/kg, 6 h, dose level Low): 53.8 IU/L
AST (200 mg/kg, 6 h, dose level Low): 78.6 IU/L
CRE (200 mg/kg, 6 h, dose level Low): 0.2 mg/dL
Ca (200 mg/kg, 6 h, dose level Low): 9.9 mg/dL
DBIL (200 mg/kg, 6 h, dose level Low): 0.018 mg/dL
IP (200 mg/kg, 6 h, dose level Low): 9.6 mg/dL
K (200 mg/kg, 6 h, dose level Low): 4 meq/L
LDH (200 mg/kg, 6 h, dose level Low): 142.6 IU/L
Na (200 mg/kg, 6 h, dose level Low): 141.5 meq/L
PL (200 mg/kg, 6 h, dose level Low): 142.8 mg/dL
RALB (200 mg/kg, 6 h, dose level Low): 3.9 g/dL
TBIL (200 mg/kg, 6 h, dose level Low): 0.076 mg/dL
TC (200 mg/kg, 6 h, dose level Low): 93 mg/dL
TG (200 mg/kg, 6 h, dose level Low): 31.4 mg/dL
TP (200 mg/kg, 6 h, dose level Low): 5.4 g/dL
gamma-GTP (200 mg/kg, 6 h, dose level Low): 0.9 IU/L
TERMINAL_BW (200 mg/kg, 9 h, dose level Low): 210 g
Bas (200 mg/kg, 9 h, dose level Low): 0%
Eos (200 mg/kg, 9 h, dose level Low): 0.6%
Ht (200 mg/kg, 9 h, dose level Low): 38.5%
Lym (200 mg/kg, 9 h, dose level Low): 78.4%
MCH (200 mg/kg, 9 h, dose level Low): 20.9 pg
Mono (200 mg/kg, 9 h, dose level Low): 3.2%
Neu (200 mg/kg, 9 h, dose level Low): 17.2%
RBC (200 mg/kg, 9 h, dose level Low): 611 x10_4/ul
Ret (200 mg/kg, 9 h, dose level Low): 8.8%
KIDNEY_L (200 mg/kg, 9 h, dose level Low): 0.9 g
KIDNEY_R (200 mg/kg, 9 h, dose level Low): 0.9 g
KIDNEY_TOTAL (200 mg/kg, 9 h, dose level Low): 1.8 g
LIVER (200 mg/kg, 9 h, dose level Low): 8.6 g
ALP (200 mg/kg, 9 h, dose level Low): 1488 IU/L
ALT (200 mg/kg, 9 h, dose level Low): 48.2 IU/L
AST (200 mg/kg, 9 h, dose level Low): 78.4 IU/L
CRE (200 mg/kg, 9 h, dose level Low): 0.2 mg/dL
Ca (200 mg/kg, 9 h, dose level Low): 9.9 mg/dL
DBIL (200 mg/kg, 9 h, dose level Low): 0.01 mg/dL
IP (200 mg/kg, 9 h, dose level Low): 9.5 mg/dL
K (200 mg/kg, 9 h, dose level Low): 4.3 meq/L
Na (200 mg/kg, 9 h, dose level Low): 143.6 meq/L
PL (200 mg/kg, 9 h, dose level Low): 146 mg/dL
RALB (200 mg/kg, 9 h, dose level Low): 3.8 g/dL
TBIL (200 mg/kg, 9 h, dose level Low): 0.048 mg/dL
TC (200 mg/kg, 9 h, dose level Low): 93.6 mg/dL
TG (200 mg/kg, 9 h, dose level Low): 39 mg/dL
TP (200 mg/kg, 9 h, dose level Low): 5.4 g/dL
gamma-GTP (200 mg/kg, 9 h, dose level Low): 1.1 IU/L
TERMINAL_BW [5]: 215.5 g
Bas [5]: 0%
Eos [5]: 0.8%
Ht [5]: 40.7%
Lym [5]: 66%
MCH [5]: 20.6 pg
Mono [5]: 4%
Neu [5]: 28.6%
RBC [5]: 635 x10_4/ul
Ret [5]: 8.2%
KIDNEY_L [5]: 1 g
KIDNEY_R [5]: 1 g
KIDNEY_TOTAL [5]: 2 g
LIVER [5]: 9.5 g
ALP [5]: 1548.6 IU/L
ALT [5]: 39.6 IU/L
AST [5]: 72.8 IU/L
CRE [5]: 0.2 mg/dL
Ca [5]: 10.7 mg/dL
DBIL [5]: 0.004 mg/dL
IP [5]: 8.6 mg/dL
K [5]: 4.4 meq/L
LDH [5]: 215.2 IU/L
Na [5]: 142.9 meq/L
PL [5]: 166 mg/dL
RALB [5]: 4 g/dL
TBIL [5]: 0.022 mg/dL
TG [5]: 69.4 mg/dL
TP [5]: 5.5 g/dL
gamma-GTP [5]: 1.2 IU/L
TERMINAL_BW (600 mg/kg, 3 h, dose level Middle): 215 g
